Earlier results on one compound are cited in US20090047245A1, “Prognostic chronic hepatitis C biomarkers” (priority 2007, published 2009).

For this series, the system named is HCV.

Molecules are shown by their SMILES.

On to `NC(=O)c1ncn([C@@H]2O[C@H](CO)[C@@H](O)[C@H]2O)n1` [ribavirin], for which the “increase of the sustained response rate” value (ribavirin added to interferon) is recorded as “two- to three-fold”. Further, the “effect on HCV” value (ribavirin by itself) is on record as “little effect on HCV”.
